Series [1] relates to healthy volunteers. The series is described as follows: Clinical trial: effect on heart rate (EmaxHR) from 12-lead Holter ECG recordings. Format: in vivo, human. The following applies: for mean EmaxHR (maximum change from baseline in time matched, hourly average HR): Day 10, monotherapy at steady state, siponimod 2 mg qd after titration or propranolol 80 mg LA qd, placebo 11.73 bpm. The text has this: (§1) Healthy volunteers (men and women) aged between 18 and 55 years with a body mass index of 18-30 kg/m^2 were included in the study. Subjects were required to have an FEV1 of ≥90% of predicted normal, a systolic blood pressure (BP) of 90-140 mm Hg, a diastolic BP of 50-90 mm Hg and a pulse rate of 50-90 bpm. Women of childbearing potential, pregnant or lactating women, homozygous carriers for CYP2C9*3 genotype, smokers, those with current or medical history of cardiovascular disorders or bronchospastic disease were excluded from this study. At screening, a 24 h Holter recording was performed on all subjects to exclude those with any significant arrhythmia.
This was a double-blind, randomised, placebo-controlled study consisting of the following periods: screening (28 days), baseline evaluation (2 days), treatment (20 days) and study completion evaluation (approximately 10 days after the last drug administration; FIG. 1). Eligible subjects were domiciled for 22 days, starting approximately 36 h before dosing until 24 h post-dose after Day 20. The baseline evaluations were performed on Day −2 or Day −1. Subjects were randomised to one of the four treatment groups (A, B, C and D) in a ratio of 1:1:1:1. […] In Group A, treatment was initiated with the siponimod dose-titration regimen (Days 1-6) followed by siponimod 2 mg (Days 7-20). Siponimod was uptitrated by one administration of 0.25 mg siponimod on day 1, one administration of 0.25 mg siponimod on day 2, one administration of 0.5 mg siponimod on day 3, one administration of 0.75 mg siponimod on day 4, one administration of 1.25 mg siponimod on day 5 and one administration of 2 mg siponimod on day 6, followed by a steady dose of 2 mg siponimod qd thereafter. […] These subjects concomitantly received siponimod-placebo (Days 1-10), followed by the siponimod dose-titration regimen (Days 11-16) and siponimod 2 mg (Days 17-20). […]
(§2) The HR and bradyarrhythmias were evaluated from the 12-Lead Holter electrocardiogram (ECG) recordings. […] The hourly average HR in each post-dose hour was calculated from the 60 intervals of per minute HR data. […]

The subject of series [2] is healthy volunteers. As to the kind of experiment: Clinical trial: bradyarrhythmias (AVBs, sinus pauses) from 24 h post-dose Holter evaluation. Format: in vivo, human.
From the text: as §1
This was a double-blind, randomised, placebo-controlled study consisting of the following periods: screening (28 days), baseline evaluation (2 days), treatment (20 days) and study completion evaluation (approximately 10 days after the last drug administration; FIG. 1). Eligible subjects were domiciled for 22 days, starting approximately 36 h before dosing until 24 h post-dose after Day 20. […]
as §2
The cardiac rhythm was evaluated from the 24 h post-dose Holter evaluation as mentioned earlier. […]

The conditions of series [3]: deduced on the basis of previous reports (Legangneux 2013, Murdoch 1991); cited from earlier work.

Turning to `CC(C)NCC(O)COc1cccc2ccccc12` (stereo not drawn) [propranolol, reference compound], the “mean EmaxHR (maximum change from baseline in time matched, hourly average HR)” value in the series on healthy volunteers [1] is recorded as 17.85 bpm. Further, in the series with healthy volunteers [2] (propranolol only treatment), the “episodes of Mobitz I AVB” value is “Two”.

As to `CCc1cc(/C(C)=N/OCc2ccc(C3CCCCC3)c(C(F)(F)F)c2)ccc1CN1CC(C(=O)O)C1` [siponimod, 1-{4-[1-((E)-4-cyclohexyl-3-trifluoromethyl-benzyloxyimino)-ethyl]-2-ethyl-benzyl}-azetidine-3-carboxylic acid], the “mean EmaxHR (maximum change from baseline in time matched, hourly average HR)” value in the series on healthy volunteers [1] amounted to 16.79 bpm. Besides, the “mean difference in EmaxHR, siponimod alone versus propranolol alone” value in the series on healthy volunteers [1] (Day 10, 95% CI -4.98, 2.87, P=0.595) is on record as −1.06 bpm. The “episodes of second-degree AVBs or SPs of >3 seconds duration” value in the series with healthy volunteers [2] (24 h Holter on the evaluation days) is listed as “no episodes”. Moreover, in series [3], the “time to reach a pharmacokinetic steady state” value is given as “approximately 10 days”.
